This passage reports T/C results from PubChem BioAssay AID220 (DTP/NCI, 2004).

Where “and” joins values, the source holds several entries; their conditions need not be identical. Identical values can stand only once. Inconclusive results are not listed.

This assay relates to CD8F1 mice, subcutaneous mammary adenocarcinoma, T/C%. The assay is described as follows: NCI In Vivo Anticancer Drug Screen. Data for tumor model Mammary Adenocarcinoma CD8F1 (subcutaneous) in CD8F1. As to conditions: higher = larger tumour. Put shortly:
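Mice carrying transplanted tumors received test compound, and survival or tumor size was recorded. Each value is the treated-group measurement divided by the corresponding measurement in vehicle-dosed controls.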

[1] abbreviates: endpoint: median tumor weight change, dose: 125.0 mg/kg/injection, schedule: Q01DX001 (ip), vehicle: suspension in saline.
Where [2] appears, read: endpoint: median tumor weight (est.), dose: 12.5 mg/kg/injection, schedule: Q07DX005 (ip), vehicle: Klucel (hydroxypropylcellulose) (HPC).
Setting [3] is: endpoint: median tumor weight (est.), dose: 25.0 mg/kg/injection, schedule: Q07DX005 (ip), vehicle: Klucel (hydroxypropylcellulose) (HPC).
[4] abbreviates: endpoint: median tumor weight (est.), dose: 100.0 mg/kg/injection, schedule: Q07DX005 (ip), vehicle: Klucel (hydroxypropylcellulose) (HPC).
[5] abbreviates: endpoint: median tumor weight (est.), dose: 200.0 mg/kg/injection, schedule: Q07DX005 (ip), vehicle: Klucel (hydroxypropylcellulose) (HPC).
Where [6] appears, read: endpoint: median tumor weight (est.), dose: 400.0 mg/kg/injection, schedule: Q07DX005 (ip), vehicle: Klucel (hydroxypropylcellulose) (HPC).

Take `Cc1cc(NCCCN(C)C)c2ccc3c(ccc4c(NCCCN(C)C)cc(C)nc43)c2n1`: the T/C was 87 % of control (endpoint: median tumor weight change, dose: 3.9 mg/kg/injection, schedule: Q01DX001 (ip), vehicle: saline) and 98 % of control (endpoint: median tumor weight change, dose: 7.81 mg/kg/injection, schedule: Q01DX001 (ip), vehicle: saline).

Regarding `O=c1[nH]cnc2[nH]ncc12`, the T/C by setting is: under setting [1], 104 % of control; (endpoint: median tumor weight change, dose: 250.0 mg/kg/injection, schedule: Q01DX001 (ip), vehicle: suspension in saline) 71 % of control.

As for `O=c1cc(CCl)[nH]nc1CCl`, the T/C is 86 % of control and 88 % of control (endpoint: median tumor weight (est.), dose: 3.12 mg/kg/injection, schedule: Q07DX005 (ip), vehicle: saline with Tween-80); 96 % of control and 103 % of control (endpoint: median tumor weight (est.), dose: 6.25 mg/kg/injection, schedule: Q07DX005 (ip), vehicle: saline with Tween-80); 92 % of control and 106 % of control (endpoint: median tumor weight (est.), dose: 12.5 mg/kg/injection, schedule: Q07DX005 (ip), vehicle: saline with Tween-80); 55 % of control (endpoint: median tumor weight (est.), dose: 50.0 mg/kg/injection, schedule: Q07DX005 (ip), vehicle: saline with Tween-80).

Consider `CCOC(=O)Nc1cc2c(c(N)n1)N=C(c1ccccc1)CN2`, for which the T/C is 86 % of control (endpoint: median tumor weight change, dose: 6.25 mg/kg/injection, schedule: Q01DX001 (ip), vehicle: saline with Tween-80) and 35 % of control (endpoint: median tumor weight change, dose: 12.5 mg/kg/injection, schedule: Q01DX001 (ip), vehicle: saline with Tween-80).

As for `COc1cc2c[n+](C)c3c(c2cc1OC)Cc1cc2c(cc1-3)OCO2`, the T/C (endpoint: median tumor weight change, dose: 62.5 mg/kg/injection, schedule: Q01DX001 (ip), vehicle: suspension in saline) was 92 % of control and the T/C under setting [1] was 105 % of control.

Consider `NC(Cc1ccc(N(CCCl)Cc2ccccc2)cc1)C(=O)O` (stereo not drawn), for which the T/C by setting is: (endpoint: median tumor weight (est.), dose: 6.25 mg/kg/injection, schedule: Q07DX005 (ip), vehicle: distilled water + Tween-80) 84 % of control; (endpoint: median tumor weight (est.), dose: 12.5 mg/kg/injection, schedule: Q07DX005 (ip), vehicle: distilled water + Tween-80) 60 % of control; (endpoint: median tumor weight (est.), dose: 25.0 mg/kg/injection, schedule: Q07DX005 (ip), vehicle: distilled water + Tween-80) 79 % of control; (endpoint: median tumor weight (est.), dose: 50.0 mg/kg/injection, schedule: Q07DX005 (ip), vehicle: distilled water + Tween-80) 25 % of control.

As to `NCCc1ccc(O)c(O)c1`, the T/C was 39 % of control (endpoint: mean tumor weight, dose: 300.0 mg/kg/injection, schedule: Q07DX005 (ip), vehicle: saline); 87 % of control (endpoint: mean tumor weight, dose: 600.0 mg/kg/injection, schedule: Q07DX005 (ip), vehicle: saline); 62 % of control (endpoint: median tumor weight (est.), dose: 25.0 mg/kg/injection, schedule: Q07DX005 (ip), vehicle: saline); 83 % of control (endpoint: median tumor weight (est.), dose: 200.0 mg/kg/injection, schedule: Q07DX005 (ip), vehicle: saline); 74 % of control (endpoint: median tumor weight (est.), dose: 300.0 mg/kg/injection, schedule: Q07DX005 (ip), vehicle: saline).

Turning to `N=C(N)Sc1ccccn1`, the T/C (endpoint: median tumor weight (est.), dose: 12.5 mg/kg/injection, schedule: Q07DX005 (ip), vehicle: suspension in saline) is 156 % of control; the T/C (endpoint: median tumor weight (est.), dose: 25.0 mg/kg/injection, schedule: Q07DX005 (ip), vehicle: suspension in saline) is 113 % of control; the T/C (endpoint: median tumor weight (est.), dose: 50.0 mg/kg/injection, schedule: Q07DX005 (ip), vehicle: suspension in saline) is 103 % of control; the T/C (endpoint: median tumor weight (est.), dose: 400.0 mg/kg/injection, schedule: Q07DX005 (ip), vehicle: suspension in saline) was 121 % of control.

`O=S(=O)(O)O`: the T/C (endpoint: median tumor weight change, dose: 62.5 mg/kg/injection, schedule: Q01DX001 (ip), vehicle: Klucel (hydroxypropylcellulose) (HPC)) was 101 % of control.

With `c1ccc([Te][Te]c2ccccc2)cc1`, the T/C was 97 % of control (endpoint: median tumor weight change, dose: 75.0 mg/kg/injection, schedule: Q01DX001 (ip), vehicle: Klucel (hydroxypropylcellulose) (HPC)); 48 % of control (endpoint: median tumor weight change, dose: 150.0 mg/kg/injection, schedule: Q01DX001 (ip), vehicle: Klucel (hydroxypropylcellulose) (HPC)); 34 % of control (endpoint: median tumor weight change, dose: 300.0 mg/kg/injection, schedule: Q01DX001 (ip), vehicle: Klucel (hydroxypropylcellulose) (HPC)).

As for `CNC=O`, the T/C is, setting by setting: (endpoint: median tumor weight change, dose: 25.0 mg/kg/injection, schedule: Q01DX001 (ip), vehicle: saline) 54 % of control; (endpoint: median tumor weight change, dose: 50.0 mg/kg/injection, schedule: Q01DX001 (ip), vehicle: saline) 75 % of control; (endpoint: median tumor weight change, dose: 100.0 mg/kg/injection, schedule: Q01DX001 (ip), vehicle: saline) 59 % of control; (endpoint: median tumor weight change, dose: 200.0 mg/kg/injection, schedule: Q01DX001 (ip), vehicle: saline sonified) 48 % of control; (endpoint: median tumor weight change, dose: 200.0 mg/kg/injection, schedule: Q01DX001 (ip), vehicle: saline) 72 % of control; (endpoint: median tumor weight change, dose: 800.0 mg/kg/injection, schedule: Q01DX001 (ip), vehicle: saline) 154 % of control. Moreover, the T/C (endpoint: median tumor weight change, dose: 1600.0 mg/kg/injection, schedule: Q01DX001 (ip), vehicle: saline) was 71 % of control and the T/C (endpoint: median tumor weight change, dose: 3200.0 mg/kg/injection, schedule: Q01DX001 (ip), vehicle: saline) is 108 % of control.

In the case of `CC(=O)OCC1OC(OC2=C(CC=C(C)C)C(=O)c3ccccc3C2=O)C(OC(C)=O)C(OC(C)=O)C1OC(C)=O` (stereo not drawn), the T/C was 75 % of control and 98 % of control under setting [2]; 69 % of control under setting [3]; 113 % of control under setting [4]; 107 % of control under setting [5]; 79 % of control under setting [6].

For the compound `COc1ccc2c(ccc3oc([N+](=O)[O-])cc32)c1`, the T/C (endpoint: median tumor weight change, dose: 62.5 mg/kg/injection, schedule: Q01DX001 (ip), vehicle: saline with Tween-80) was 77 % of control; the T/C (endpoint: median tumor weight change, dose: 125.0 mg/kg/injection, schedule: Q01DX001 (ip), vehicle: saline with Tween-80) is 63 % of control; the T/C (endpoint: median tumor weight change, dose: 250.0 mg/kg/injection, schedule: Q01DX001 (ip), vehicle: saline with Tween-80) was 76 % of control; the T/C (endpoint: median tumor weight change, dose: 500.0 mg/kg/injection, schedule: Q01DX001 (ip), vehicle: saline with Tween-80) was 86 % of control; the T/C (endpoint: median tumor weight change, dose: 1000.0 mg/kg/injection, schedule: Q01DX001 (ip), vehicle: saline with Tween-80) is 56 % of control.

Take `CNc1nc(NC)nc(NC)n1`: the T/C runs as follows: under setting [2], 83 % of control; (endpoint: median tumor weight (est.), dose: 12.5 mg/kg/injection, schedule: Q07DX006 (ip), vehicle: Klucel (hydroxypropylcellulose) (HPC)) 86 % of control; under setting [3], 163 % of control; (endpoint: median tumor weight (est.), dose: 25.0 mg/kg/injection, schedule: Q07DX006 (ip), vehicle: Klucel (hydroxypropylcellulose) (HPC)) 72 % of control; (endpoint: median tumor weight (est.), dose: 50.0 mg/kg/injection, schedule: Q07DX005 (ip), vehicle: Klucel (hydroxypropylcellulose) (HPC)) 107 % of control; (endpoint: median tumor weight (est.), dose: 50.0 mg/kg/injection, schedule: Q07DX006 (ip), vehicle: Klucel (hydroxypropylcellulose) (HPC)) 203 % of control. Further, the T/C under setting [4] is 93 % of control; the T/C (endpoint: median tumor weight (est.), dose: 100.0 mg/kg/injection, schedule: Q07DX006 (ip), vehicle: Klucel (hydroxypropylcellulose) (HPC)) is 294 % of control; the T/C under setting [5] was 174 % of control; the T/C (endpoint: median tumor weight (est.), dose: 200.0 mg/kg/injection, schedule: Q07DX006 (ip), vehicle: Klucel (hydroxypropylcellulose) (HPC)) is 117 % of control; the T/C under setting [6] is 65 % of control.

Turning to `CO[C@H]1C[C@](C)(O)Cc2cc3c(c(O)c21)C(=O)c1c(O)cc2c(c1C3=O)O[C@@H]1O[C@@]2(C)[C@H](O)[C@@H](N(C)C)[C@@H]1O`, the T/C is 62 % of control (endpoint: median tumor weight (est.), dose: 7.0 mg/kg/injection, schedule: Q07DX005 (ip), vehicle: saline with Tween-80); 60 % of control (endpoint: median tumor weight (est.), dose: 11.0 mg/kg/injection, schedule: Q07DX005 (ip), vehicle: saline with Tween-80); 75 % of control (endpoint: median tumor weight (est.), dose: 16.0 mg/kg/injection, schedule: Q07DX005 (ip), vehicle: saline with Tween-80); 64 % of control (endpoint: median tumor weight (est.), dose: 24.0 mg/kg/injection, schedule: Q07DX005 (ip), vehicle: saline with Tween-80); 10 % of control (endpoint: median tumor weight (est.), dose: 48.0 mg/kg/injection, schedule: Q07DX005 (ip), vehicle: saline with Tween-80).
